Patent US20260049104A1, “PEPTIDES WITH ANTIMICROBIAL PROPERTIES” (priority 2022, published 2026)
In brackets after ≈: the same amount, converted by molar mass. Where two headings read alike, the source gives them in different places. No end group written: not given here.

Tests used:
[1] = test system: Bacillus subtilis; assay type: cell-based; conditions: Bacillus subtilis ATCC 6633
Source text: (§1) The experiments were repeated three times.

[2] = test system: Morganella morganii; assay type: cell-based
Source text: as §1

[3] = test system: Pseudomonas aeruginosa; assay type: cell-based
Source text: as §1

[4] = test system: Acinetobacter baumannii
Description: (§2) MIC screening of the peptides against a panel of ATCC and clinical strains was performed using broth microdilution method.^1 Briefly, peptides stock solutions in DMSO (0.1/G TFA) were diluted into Mueller Hinton Broth (MHB), followed by two-fold serial dilution in a 96-well plate. Bacteria culture in mid-log phase was diluted into MHB to yield […] colony-forming units (CFU)/mL. Equal volume of the starting inoculum was added to the peptide samples, then incubated for 18-20 h (37° C., 120 rpm). OD600 of the samples was then measured using Tecan Infinite M200 (TECAN, Männedorf, Switzerland). MIC is defined as the lowest peptide concentration to achieve more than 90% reduction in OD600 relative to the drug-free control. The experiments were repeated three times. Colistin-resistant clinical isolates are a kind gift from Dr. Jeanette Koh (National University Hospital, Singapore). Multidrug-resistant clinical isolates are a kind gift from Dr. Lakshminarayanan Rajamani (Singapore Eye Research Institute, Singapore).
(§3) Kanamycin and ampicillin were used as antibacterial control agents. […] Then, sequential 2-fold serial dilutions of the mix were diluted in 50 μL MH broth and 50 μL cell cultures were added to wells. […] All assays were carried out in triplicate.

[5] = test system: Enterobacter cloacae
Description: as §2, §3

[6] = test system: Escherichia coli
Description: as §2, §3

[7] = test system: Klebsiella pneumoniae
Description: as §2, §3

[8] = test system: Staphylococcus aureus
Description: as §2, §3

[9] = test system: Bacillus cereus; conditions: Bacillus cereus ATCC 11778
Description: as §2

[10] = test system: Enterobacteriaceae
Description: as §2

[11] = test system: Salmonella entereditis; conditions: Salmonella entereditis ATCC 13076
Description: as §2

[12] = test system: Salmonella typhimurium; conditions: Salmonella typhimurium ATCC 14028
Description: as §2

[13] = test system: Shigella flexneri; conditions: Shigella flexneri M90T
Description: as §2

[14] = test system: E. coli M6; conditions: E. coli M6, over 24 h
Description: Peptides stock solutions were diluted into MHB to desired concentrations. Bacteria culture in mid-log phase was diluted into MHB to yield 10^6 CFU/mL. The mixture was incubated at 37° C. with shaking. At each time point, 10 μL of the sample was drawn out and subjected to ten-fold serial dilution. 20 μL of relevant dilutions was dropped onto MHA plate using the drop plate method. The plate was incubated for 18-20 h at 37° C. Colony number was counted, and used for calculating the CFU/mL according to the equation:
CFU/mL=Colony count×50×dilution factor

[15] = test system: E. coli M6
Description: Resistance development of E. coli M6 against xenorceptide A2 was assessed by serial passaging of the bacteria in broth containing subinhibitory concentrations of the peptide. In brief, bacteria culture at mid-log phase was diluted to 10^5-10^6 CFU/mL in MHB containing 0.25×, 0.5×, 1×, 2×, and 4×MIC of the peptide. […] A new set of peptide concentration range was added to the cultures based on the latest MIC. This process was repeated over 14 days for three independent starting cultures.

[16] = test system: HepG2 human cells
[17] = test system: E. coli M6; remark: listed apart in the source
Description: Female C57BL/6NTac mice aged 6-8 weeks were acquired from InVivos Pte Ltd (Singapore, Singapore). Solutions for injections were prepared fresh in pharmaceutical grade saline and filter-sterilized. Murine peritonitis model was established according to literature. Briefly, healthy mice were rendered neutropenic by administering i.p. injection (0.5 mL) of cyclophosphamide on day −4 (150 mg/kg) and day −1 (100 mg/kg). On day 0, mice were infected with E. coli M6 (10^9 CFU/mL) through i.p. injection (0.1 mL). […] At 2 h post-treatment, mice were humanely euthanized by carbon dioxide asphyxiation and cervical dislocation. Sterile PBS (3 mL) was injected into the peritoneal cavity, followed by abdominal massage and collection of peritoneal fluid (1-2 mL). Blood (0.3-0.5 mL) was collected through cardiac puncture. Liver, spleen, and kidney were surgically removed and stored in 0.1% Triton X-100 (in PBS). Tissue homogenization was performed using gentleMACS dissociator (Miltenyi Biotec, Germany) by following a published protocol. Cell aggregates were removed using a 30 μm mesh MACS SmartStrainer (Miltenyi Biotec). Blood, peritoneal fluid, and tissue homogenates were plated on LB agar and incubated overnight for colony counting.

[18] = test system: Enterococcus faecalis; assay type: cell-based; conditions: strain not given, Table 14, preliminary screening
Description: MIC values for compounds (1-11) were assessed using 96-well plate format with Mueller Hinton (MH) broth, using the two-fold dilution method, previously reported in standard methods provided by Clinical and Laboratory Standards S8 Institute (CLSI). Kanamycin and ampicillin were used as antibacterial control agents. According to the reference, the compounds (1-11) were first dissolved in DMSO+0.1% TFA at a concentration of 3.2 mg/mL and 4 μL was serially diluted in 96 μL of MH broth. Then, sequential 2-fold serial dilutions of the mix were diluted in 50 μL MH broth and 50 μL cell cultures were added to wells. […] All assays were carried out in triplicate.

[19] = test system: Gram-positive and Gram-negative bacteria; conditions: panel of E. coli, K. pneumoniae, E. cloacae, A. baumannii, E. faecalis and S. aureus; preliminary screening
Description: as §2, §3

[20] = E. coli M6, sub-inhibitory concentrations, over two weeks
[21] = 50 mg/kg single i.p. dose, 5 h post-treatment, neutropenic mice infected with E. coli M6

CC(C)[C@@H]1NC(=O)[C@@H](N)Cc2c[nH]c3cc(ccc23)[C@H](C(N)=O)[C@@H](C(=O)N[C@@H](C)C(=O)N[C@H]2Cc3cccc(c3)[C@H](CCNC(=N)N)[C@@H](C(=O)N[C@H]3Cc4c[nH]c5cc(ccc45)[C@H](CCCN)[C@@H](C(=O)N[C@@H](CO)C(=O)N[C@@H](Cc4ccccc4)C(=O)O)NC(=O)[C@H](CO)NC3=O)NC(=O)[C@H](C)NC2=O)NC1=O [xenorceptide A2]
MIC [1]: >64 µg/mL | MIC ([2]; Morganella morganii ATCC 25830): 32 µg/mL (≈ 21.4 µM) | MIC ([2]; Morganella morganii CRE1001): 32 µg/mL (≈ 21.4 µM) | MIC ([3]; Pseudomonas aeruginosa ATCC 9027): 64 µg/mL (≈ 42.9 µM) | MIC ([3]; Pseudomonas aeruginosa DM4150R): 64 µg/mL (≈ 42.9 µM) | MIC ([3]; Pseudomonas aeruginosa DM23376): >64 µg/mL | MIC ([3]; Pseudomonas aeruginosa DR4877/07): 64 µg/mL (≈ 42.9 µM) | MIC ([3]; Pseudomonas aeruginosa DR5790/07): 64 µg/mL (≈ 42.9 µM) | MIC ([4]; Acinetobacter baumannii ACBA1001): 32 µg/mL (≈ 21.4 µM) | MIC ([4]; Acinetobacter baumannii ACBA1002): 32 µg/mL (≈ 21.4 µM) | MIC ([4]; Acinetobacter baumannii ACBA1003): 32 µg/mL (≈ 21.4 µM) | MIC ([4]; Acinetobacter baumannii ACBA1004): 64 µg/mL (≈ 42.9 µM) | MIC ([4]; Acinetobacter baumannii ATCC 19606): >64 µg/mL | MIC ([5]; Enterobacter cloacae CRE1010): 4 µg/mL (≈ 2.68 µM) | MIC ([5]; Enterobacter cloacae CRE1014): 16 µg/mL (≈ 10.7 µM) | MIC ([5]; Enterobacter cloacae CRE1015): 32 µg/mL (≈ 21.4 µM) | MIC ([5]; Enterobacter cloacae CRE1016): 16 µg/mL (≈ 10.7 µM) | MIC ([5]; Enterobacter cloacae CRE1017): 32 µg/mL (≈ 21.4 µM) | MIC ([6]; Escherichia coli ATCC 25922): 4 µg/mL (≈ 2.68 µM) | MIC ([6]; Escherichia coli CRE1006, carbapenem-resistant clinical isolate): 4 µg/mL (≈ 2.68 µM) | MIC ([6]; Escherichia coli M6, carbapenem- and colistin-resistant clinical isolate): 8 µg/mL (≈ 5.36 µM) | MIC ([6]; Escherichia coli M10, carbapenem- and colistin-resistant clinical isolate): 4 µg/mL (≈ 2.68 µM) | MIC ([6]; Escherichia coli M11, carbapenem- and colistin-resistant clinical isolate): 4 µg/mL (≈ 2.68 µM) | MIC ([7]; Klebsiella pneumoniae ATCC 700603): 8 µg/mL (≈ 5.36 µM) | MIC ([7]; Klebsiella pneumoniae CRE 1007): 8 µg/mL (≈ 5.36 µM) | MIC ([7]; Klebsiella pneumoniae CRE1008): 8 µg/mL (≈ 5.36 µM) | MIC ([7]; Klebsiella pneumoniae CRE1011): 8 µg/mL (≈ 5.36 µM) | MIC ([7]; Klebsiella pneumoniae CRE1012): 8 µg/mL (≈ 5.36 µM) | MIC ([8]; Staphylococcus aureus ATCC 29737): >64 µg/mL | MIC ([8]; Staphylococcus aureus ATCC 43300): >64 µg/mL | MIC [9]: >64 µg/mL | potency compared with dynobactin and darobactin ([10]; against Enterobactericeae): more potent than dynobactin and has comparable potency to darobactin | MIC values ([10]; several carbapenamase-resistant Enterobacteriaceae (CRE)): 4 to 8 µg/mL | MIC [11]: 8 µg/mL (≈ 5.36 µM) | MIC [12]: 8 µg/mL (≈ 5.36 µM) | MIC [13]: 2 µg/mL (≈ 1.34 µM) | bactericidal effect: reduction in bacteria count ([14]; at 8×MIC): 3 log | bactericidal effect: reduction in bacteria count ([14]; at both 4× and 8×MIC): 3 log | level at which resistance development halted ([15]; E. coli): 4 ×MIC | period over which resistance development occurred ([15]; E. coli): 6 to 8 days | MIC of strains obtained by serial passage [15, 20]: 32 µg/mL | resistance of strains obtained by serial passage [15, 20]: ~4 fold | cytotoxicity: concentration up to which no cytotoxicity was shown [16]: > 256 µg/mL | decrease in colony count relative to saline control, blood [17, 21]: 7 log | decrease in colony count relative to saline control, liver [17, 21]: 4 log | decrease in colony count relative to saline control, peritoneal fluid [17, 21]: 6 log | reduction in bacteria burden, kidney [17, 21]: 2 log | reduction in bacteria burden, spleen [17, 21]: 2 log | in vivo efficacy compared with colistin ([17]; both at 5 mg/kg, single i.p. dose): comparable efficacy to colistin

RGEGWVRAYWAKRF [Compound 26]
MIC [18]: >64 µg/mL | MIC ([4]; Acinetobacter baumanii ATCC 19606, Table 14, preliminary screening): >64 µg/mL | MIC ([5]; Enterobacter cloacae, strain not given, Table 14, preliminary screening): >64 µg/mL | MIC ([6]; Escherichia coli ATCC 25922, Table 14, preliminary screening): >64 µg/mL | antibacterial activity [19]: not active | MIC ([7]; Klebsiella pneumoniae ATC 700603, Table 14, preliminary screening): >64 µg/mL | MIC ([8]; Staphylococcus aureus ATCC 29737, Table 14, preliminary screening): >64 µg/mL
